Test results as given in patent US20260165974A1, “Moisture-proof L-a-glycerylphosphorylcholine” (NANJING NUTRABUILDING BIO-TECH CO., LTD., priority 2023, published 2026).
Values belong to the molecule of their own block, whether it stands above or below them.

Columns and labels:
Format in all cases: physicochemical
[1] = Hygroscopicity: moisture absorption weight gain in artificial climate box; conditions: temperature 25° C., relative humidity 75%
Experimental: Specific test method: A dry glass weighing bottle with plug (outer diameter 50 mm, height 15 mm) was placed in an artificial climate box (temperature 25° C., relative humidity 75%) one day before the test, and was accurately weighed (m1). An appropriate amount of test sample was spread in the weighing bottle (thickness of test sample is generally about 1 mm), and it was accurately weighed (m2). The weighing bottle was opened and placed with the bottle cap under the above-mentioned constant temperature and humidity conditions. The weighing bottle was taken out at 5 min, 10 min, 20 min, 30 min, 60 min, 120 min and 180 min respectively, and accurately weighed (m3). The weight gain percentage was calculated according to the calculation formula: weight gain percentage=100%× (m3−m2)/(m2−m1).

[2] = Fluidity and repose angle before and after open storage at 25° C./75% RH for 0~3 h
Experimental: (§1) Study method: 5 g of sample was weighed into a weighing dish (60*30 mm), and placed in an open position at 25° C./75% RH to observe the moisture-proof effect for 0˜3 h.

[3] = Score of fluidity, adhesiveness and deliquescence at 25° C./75% RH
Experimental: as §1
(§2) See Table 3-1 for the scoring standards of some examples. See Table 3-2 for the score results of fluidity, adhesiveness and deliquescence of moisture-proof L-α-glycerylphosphorylcholine.

[4] = Passing rate of 20-mesh sieve at 25° C./75% RH
Experimental: as §1, §2

[5] = after open placing at 25° C./75% RH, 3 h
[6] = before placing at 25° C./75% RH

- weight gain percentage ([1]; 5 min): 3.0%
- weight gain percentage ([1]; 10 min): 4.2%
- weight gain percentage ([1]; 20 min): 7.4%
- weight gain percentage ([1]; 30 min): 9.5%
- weight gain percentage ([1]; 60 min): 12.3%
- weight gain percentage ([1]; 120 min): 14.6%
- weight gain percentage ([1]; 180 min): 18.5%
Structure (SMILES): C[N+](C)(C)CCOP(=O)([O-])OC[C@H](O)CO [Raw material 1, L-α-glycerylphosphorylcholine]

- weight gain percentage ([1]; 5 min): 3.2%
- weight gain percentage ([1]; 10 min): 4.1%
- weight gain percentage ([1]; 20 min): 7.2%
- weight gain percentage ([1]; 30 min): 9.4%
- weight gain percentage ([1]; 60 min): 12.6%
- weight gain percentage ([1]; 120 min): 14.4%
- weight gain percentage ([1]; 180 min): 18.7%
Structure (SMILES): C[N+](C)(C)CCOP(=O)([O-])OC[C@H](O)CO [Raw material 2, L-α-glycerylphosphorylcholine]

- Appearance and fluidity, After [2, 5]: All deliquescent and
- Repose angle, After [2, 5]: unmeasurable
- Appearance and fluidity, Before [2, 6]: Crystalloid/particle, good
- Repose angle, Before [2, 6]: 41°
- score of fluidity, adhesiveness and deliquescence ([3]; 5 min): 9
- score of fluidity, adhesiveness and deliquescence ([3]; 10 min): 0
- score of fluidity, adhesiveness and deliquescence ([3]; 20 min): 0
- score of fluidity, adhesiveness and deliquescence ([3]; 30 min): 0
- score of fluidity, adhesiveness and deliquescence ([3]; 60 min): 0
- score of fluidity, adhesiveness and deliquescence ([3]; 120 min): 0
- score of fluidity, adhesiveness and deliquescence ([3]; 180 min): 0
- passing rate of 20-mesh sieve ([4]; 5 min): 97%
- passing rate of 20-mesh sieve ([4]; 10 min): 35%
- passing rate of 20-mesh sieve ([4]; 20 min): 24%
- passing rate of 20-mesh sieve ([4]; 30 min): 2%
- passing rate of 20-mesh sieve ([4]; 60 min): 0%
- passing rate of 20-mesh sieve ([4]; 120 min): 0%
- passing rate of 20-mesh sieve ([4]; 180 min): 0%
Structure (SMILES): C[N+](C)(C)CCOP(=O)([O-])OC[C@H](O)CO [Raw material, L-α-glycerylphosphorylcholine]
